Measurements published in paper PMC8495455, “Discovery of a transdermally deliverable pentapeptide for activating AdipoR1 to promote hair growth” (EMBO Molecular Medicine, 2021).

Assays:
[1] = test system: HGF mRNA; assay: qRT-PCR growth factor gene expression in DP cells, HGF; assay type: cell-based, human; conditions: for mRNA_HGF: DP cells
Text: (§1) Next, we investigated the downstream effects of P5 on hair growth factor genes and proteins in DP cells. […] We tested whether P5 can also increase the mRNA levels and proteins of hair growth factors in DP cells: IGF‐1, VEGF, HGF, platelet‐derived growth factor alpha (PDGFA), and fibroblast growth factor (FGF) 7, which are known to induce or maintain the anagen phase of the hair cycle (Jindo et al, [1994]; Philpott et al, [1994]; Yano et al, [2001]; Jang, [2005]; Tomita et al, [2006]; Iino et al, [2007]).
(§2) Total RNA was isolated from P5‐treated DP cells using RNAiso Plus (#9109; TaKaRa). We used the total RNA (1 µg) for cDNA synthesis using a RevertAid First Strand cDNA Synthesis Kit (Thermo Fisher) according to the manufacturer's instructions. The mRNA expression levels were quantified on a 7500 Real‐time PCR System (Thermo Fisher) using TB Green Premix Ex Taq (TaKaRa Bio): human IGF‐1, VEGF, HGF, PDGFA, FGF7, and glyceraldehyde 3‐phosphate dehydrogenase (GAPDH) (Appendix Table S2). The relative expression levels of each gene were determined by the 2^‐ΔΔCT method.

[2] = test system: PDGFA protein; assay: Growth factor protein quantitation in DP cell medium, PDGFA; assay type: cell-based, human; conditions: for protein_PDGFA: DP cell medium
Text: as §1
(§3) Human DP cells were grown on a 100‐mm cell culture dish to 100% confluency. After washed by PBS three times, the cells were cultured with serum‐free DMEM and treated with P5. After 48 h, the medium was collected and filtered by a […]. The filtrate was then concentrated using a centrifugal concentrator (Vivaspin 6, 10‐kDa molecular weight cutoff, centrifuged 2,600 g at 4°C for 13 min, Sartorius Stedim Biotech). The signals of each protein in the concentrated media were detected and quantified, based on the enzyme‐linked immunosorbent assay (Human Cytokine Antibody Array C2000, RayBiotech).

[3] = test system: C57BL/6 (WT) mice; assay: Mouse hair cycle modulation, histology and anagen induction score, WT mice; assay type: in vivo
Text: First, we topically applied P5 and minoxidil as a positive control (Messenger & Rundegren, [2004]) on wildtype (WT) mouse. […] Overall, the hair cycle score was higher in the P5‐treated mice than vehicle‐treated mice (Fig 4B). […] Collectively, P5 induces anagen hair cycle in vivo.
Paraffin‐embedded mouse cutaneous back tissue was sectioned (4 μm thickness) and stained with hematoxylin and eosin. For IF staining, human ORS cells cultured in FiTC‐P5, sectioned paraffin‐embedded human HFs (7 μm thickness), and sectioned paraffin‐embedded mouse cutaneous dorsal tissue or human skin tissue (5 μm thickness) were incubated at 4°C overnight with the following primary antibodies diluted in the diluent reagent (Invitrogen): phospho‐AMPK (#2535, 1:100; Cell Signaling), Ki‐67 (#M7240, 1:200; Dako), versican (#ab177480, 1:200; Abcam), or AdipoR1 antibody (#ab126611, 1:200; Abcam). After three washes with PBS, the slides were incubated with the secondary Alexa Fluor 488‐labeled anti‐mouse or rabbit IgG antibody (#ab150077, #ab150113, 1:200; Invitrogen), or Alexa Fluor 594‐labeled anti‐rabbit IgG antibody (#a11012, 1:200; Invitrogen) at 25°C for 1 h. Nuclei were counterstained with 4′,6‐diamidino‐2‐phenylindole (DAPI; #D1306, 1:1,000; Invitrogen). Microscopic observations were performed with a Nikon Eclipse Ci‐L microscope (Nikon). IF intensity was observed and recorded with a Nikon Eclipse Ni‐E fluorescence microscope (Nikon).
For the hair cycle modulation experiment, Adipoq ^−/− (stock #008195; JAX) (Ma et al, [2002]), Adipor1 ^−/− (Yamauchi et al, [2007]; Okada‐Iwabu et al, [2013]), or C57BL/6 (KOATECH) female mice was used (Müller‐Röver et al, [2001]). They were housed (up to four animals per cage; 23 ± 2°C, 8:00–20:00, 12 h/12 h light/dark cycle). Mice were fed a standard chow diet and provided food and water ad libitum. Mice were randomly allocated and shaved dorsally at 7.5 weeks of age. Only mice in telogen were included for the further experiments (Müller‐Röver et al, [2001]). From 8 weeks of age, the shaved dorsal area was treated with vehicle control (ethanol and polyethylene glycol, 30% and 70% v/v), P5 (0.1 mM), or minoxidil (3%) every day. The mouse hair growth score (a value from 0 to 100 based on the skin pigmentation and hair shaft density) was monitored and documented at designated days with the experimenters being blind to the conditions, following a previous study (Chai et al, [2019]). A higher score corresponds to a transition from telogen to anagen. On day 35, we obtained dorsal cutaneous tissue for histological analysis: anagen induction scores (calculated using an assigned arbitrary score; telogen = 1, anagen I–VI = 2–7) (Müller‐Röver et al, [2001]).

[4] = test system: FGF7 mRNA; assay: qRT-PCR growth factor gene expression in DP cells, FGF7; assay type: cell-based, human; conditions: for mRNA_FGF7: DP cells
Text: as §1, §2

[5] = test system: VEGF protein; assay: Growth factor protein quantitation in DP cell medium, VEGF; assay type: cell-based, human; conditions: for protein_VEGF: DP cell medium
Text: as §1, §3

[6] = P5 5μM, relative to Control = 1, replicate 1
[7] = P5 5μM, relative to Control = 1, replicate 2
[8] = P5 5μM, relative to Control = 1, replicate 3
[9] = P5 5μM, relative to Control = 1, replicate 4
[10] = P5 5μM, relative to Control = 1, replicate 5
[11] = P5 5μM, relative to Control = 1, replicate 6
[12] = P5 25μM, relative to Control = 1, replicate 1
[13] = P5 25μM, relative to Control = 1, replicate 2
[14] = P5 25μM, relative to Control = 1, replicate 3
[15] = P5 25μM, relative to Control = 1, replicate 4
[16] = P5 25μM, relative to Control = 1, replicate 5
[17] = P5 25μM, relative to Control = 1, replicate 6
[18] = P5-treated DP cells, 48 h medium, n = 3

## GLYYF [P5, GST-fused (GST-P5) in pulldown assays]
[1]; [6]
  mRNA_HGF: 3.441
[1]; [7]
  mRNA_HGF: 1.115
[1]; [8]
  mRNA_HGF: 3.233
[1]; [9]
  mRNA_HGF: 5.51
[1]; [10]
  mRNA_HGF: 1.947
[1]; [11]
  mRNA_HGF: 1.893
[1]; [12]
  mRNA_HGF: 6.428
[1]; [13]
  mRNA_HGF: 1.581
[1]; [14]
  mRNA_HGF: 2.359
[1]; [15]
  mRNA_HGF: 5.518
[1]; [16]
  mRNA_HGF: 2.408
[1]; [17]
  mRNA_HGF: 2.218
[1]; P5-treated DP cells, n = 6
  HGF mRNA expression: significantly increased
[2]; [6]
  protein_PDGFA: 2.032
[2]; [7]
  protein_PDGFA: 1.0925
[2]; [8]
  protein_PDGFA: 1.228
[2]; [12]
  protein_PDGFA: 3.073
[2]; [13]
  protein_PDGFA: 1.25
[2]; [14]
  protein_PDGFA: 1.481
[2]; [18]
  PDGFA protein expression level: elevated
[3]; H&E
  Histological examination of HFs: anagen HFs were noticeable
[3]; One-way ANOVA with Tukey's test
  Anagen induction scores vs vehicle: significantly higher
[4]; [6]
  mRNA_FGF7: 1.288
[4]; [7]
  mRNA_FGF7: 1.147
[4]; [8]
  mRNA_FGF7: 3.986
[4]; [9]
  mRNA_FGF7: 1.127
[4]; [10]
  mRNA_FGF7: 3.017
[4]; [11]
  mRNA_FGF7: 4.5839
[4]; [12]
  mRNA_FGF7: 1.191
[4]; [13]
  mRNA_FGF7: 1.18
[4]; [14]
  mRNA_FGF7: 4.101
[4]; [15]
  mRNA_FGF7: 1.133
[4]; [16]
  mRNA_FGF7: 2.672
[4]; [17]
  mRNA_FGF7: 4.897
[4]; P5-treated DP cells, n = 6
  FGF7 mRNA expression: significantly increased
[5]; [6]
  protein_VEGF: 1.476
[5]; [7]
  protein_VEGF: 1.303
[5]; [8]
  protein_VEGF: 1.526
[5]; [12]
  protein_VEGF: 1.967
[5]; [13]
  protein_VEGF: 2.185
[5]; [14]
  protein_VEGF: 1.674
[5]; [18]
  VEGF protein expression level: elevated
